From ChEMBL document CHEMBL3885861, “Open TG-GATES”

Species: Rattus norvegicus
Assay: Open TG-GATES - Regimen: Daily Repeat
Assay type: toxicity, organism-based, Sprague-Dawley
Set-up: regimen Daily Repeat, gender Male, age 6 weeks
Settings: in vivo, po, 0 mg/kg, route gavage, dose level Control; for APTT / Bas / Eos / Fbg / Hb / Ht / Lym / MCH / MCHC / MCV / Mono / Neu / PT / Plat / RBC / Ret / WBC: tissue Blood; for KIDNEY_L / KIDNEY_R / KIDNEY_TOTAL: tissue Kidney; for LIVER: tissue Liver; for A/G / ALP / ALT / AST / BUN / CRE / Ca / Cl / DBIL / GLC / IP / K / LDH / Na / PL / RALB / TBIL / TC / TG / TP / gamma-GTP: tissue Plasma

With `CNC(=C[N+](=O)[O-])NCCSCc1ccc(CN(C)C)o1` [RANITIDINE] the TERMINAL_BW (72 h, time 3 day) was 234.4 g, the APTT (72 h, time 3 day) was 18.8 s and the Bas (72 h, time 3 day) was 0%. For the same molecule, the Eos (72 h, time 3 day) was 1%, the Fbg (72 h, time 3 day) was 243.4 mg/dL and the Hb (72 h, time 3 day) was 13.9 g/dL. For the same molecule, the Ht (72 h, time 3 day) was 40.4%, the Lym (72 h, time 3 day) was 79.8% and the MCH (72 h, time 3 day) was 22.1 pg. For the same molecule, the MCHC (72 h, time 3 day) was 34.4%, the MCV (72 h, time 3 day) was 64.2 fL and the Mono (72 h, time 3 day) was 2.6%. The Neu (72 h, time 3 day) was 15.2%, the PT (72 h, time 3 day) was 11.9 s and the Plat (72 h, time 3 day) was 112 x10_4/uL. For the same molecule, the RBC (72 h, time 3 day) was 629.4 x10_4/ul, the Ret (72 h, time 3 day) was 5.1% and the WBC (72 h, time 3 day) was 95.3 x10_2/uL. The KIDNEY_L (72 h, time 3 day) was 1.1 g, the KIDNEY_R (72 h, time 3 day) was 1.1 g and the KIDNEY_TOTAL (72 h, time 3 day) was 2.2 g. The LIVER (72 h, time 3 day) was 11.5 g, the A/G (72 h, time 3 day) was 1.6 and the ALP (72 h, time 3 day) was 924 IU/L. For the same molecule, the ALT (72 h, time 3 day) was 35.2 IU/L, the AST (72 h, time 3 day) was 66.6 IU/L and the BUN (72 h, time 3 day) was 16.6 mg/dL. The CRE (72 h, time 3 day) was 0.4 mg/dL, the Ca (72 h, time 3 day) was 10.9 mg/dL and the Cl (72 h, time 3 day) was 103.8 meq/L. It also gave a DBIL (72 h, time 3 day) of 0.1 mg/dL, a GLC (72 h, time 3 day) of 198.8 mg/dL and an IP (72 h, time 3 day) of 7.4 mg/dL. The K (72 h, time 3 day) was 4.2 meq/L, the LDH (72 h, time 3 day) was 178.4 IU/L and the Na (72 h, time 3 day) was 140.4 meq/L. For the same molecule, the PL (72 h, time 3 day) was 169.6 mg/dL, the RALB (72 h, time 3 day) was 3.5 g/dL and the TBIL (72 h, time 3 day) was 0.2 mg/dL. For the same molecule, the TC (72 h, time 3 day) was 92.4 mg/dL, the TG (72 h, time 3 day) was 92.4 mg/dL and the TP (72 h, time 3 day) was 5.7 g/dL. For the same molecule, the gamma-GTP (72 h, time 3 day) was 1.2 IU/L, the TERMINAL_BW ([…], time 7 day) was 265.4 g and the TERMINAL_BW ([…], time 14 day) was 305.8 g. The TERMINAL_BW ([…], time 28 day) was 385.4 g, the APTT ([…], time 7 day) was 19.3 s and the Bas ([…], time 7 day) was 0%. It also gave an Eos ([…], time 7 day) of 1.2%, a Fbg ([…], time 7 day) of 225.8 mg/dL and a Hb ([…], time 7 day) of 13.9 g/dL. For the same molecule, the Ht ([…], time 7 day) was 39.4%, the Lym ([…], time 7 day) was 76.6% and the MCH ([…], time 7 day) was 21.8 pg. For the same molecule, the MCHC ([…], time 7 day) was 35.3%, the MCV ([…], time 7 day) was 61.7 fL and the Mono ([…], time 7 day) was 2.4%. It also gave a Neu ([…], time 7 day) of 18.4%, a PT ([…], time 7 day) of 12.1 s and a Plat ([…], time 7 day) of 120.4 x10_4/uL. It also gave an RBC ([…], time 7 day) of 639 x10_4/ul, a Ret ([…], time 7 day) of 4.9% and a WBC ([…], time 7 day) of 90.8 x10_2/uL. For the same molecule, the APTT ([…], time 14 day) was 20.1 s, the Bas ([…], time 14 day) was 0% and the Eos ([…], time 14 day) was 1%. It also gave a Fbg ([…], time 14 day) of 238.8 mg/dL, a Hb ([…], time 14 day) of 14.8 g/dL and a Ht ([…], time 14 day) of 42.2%. For the same molecule, the Lym ([…], time 14 day) was 75.6%, the MCH ([…], time 14 day) was 20.6 pg and the MCHC ([…], time 14 day) was 35.2%. The MCV ([…], time 14 day) was 58.6 fL, the Mono ([…], time 14 day) was 2.4% and the Neu ([…], time 14 day) was 19.2%. It also gave a PT ([…], time 14 day) of 12 s, a Plat ([…], time 14 day) of 115.1 x10_4/uL and an RBC ([…], time 14 day) of 720.6 x10_4/ul. It also gave a Ret ([…], time 14 day) of 3.7%, a WBC ([…], time 14 day) of 101.2 x10_2/uL and an APTT ([…], time 28 day) of 20.9 s. The Bas ([…], time 28 day) was 0.4%, the Eos ([…], time 28 day) was 1.4% and the Fbg ([…], time 28 day) was 223.8 mg/dL. The Hb ([…], time 28 day) was 15.6 g/dL, the Ht ([…], time 28 day) was 43.7% and the Lym ([…], time 28 day) was 77.8%. The MCH ([…], time 28 day) was 20 pg, the MCHC ([…], time 28 day) was 35.7% and the MCV ([…], time 28 day) was 56.2 fL. The Mono ([…], time 28 day) was 2.6%, the Neu ([…], time 28 day) was 16.8% and the PT ([…], time 28 day) was 12.4 s. It also gave a Plat ([…], time 28 day) of 106.3 x10_4/uL, an RBC ([…], time 28 day) of 779.2 x10_4/ul and a Ret ([…], time 28 day) of 2%. The WBC ([…], time 28 day) was 91.9 x10_2/uL, the KIDNEY_L ([…], time 7 day) was 1.1 g and the KIDNEY_R ([…], time 7 day) was 1.1 g. For the same molecule, the KIDNEY_TOTAL ([…], time 7 day) was 2.2 g, the KIDNEY_L ([…], time 14 day) was 1.2 g and the KIDNEY_R ([…], time 14 day) was 1.2 g. For the same molecule, the KIDNEY_TOTAL ([…], time 14 day) was 2.4 g, the KIDNEY_L ([…], time 28 day) was 1.5 g and the KIDNEY_R ([…], time 28 day) was 1.4 g. It also gave a KIDNEY_TOTAL ([…], time 28 day) of 2.9 g, an LIVER ([…], time 7 day) of 12.5 g and an LIVER ([…], time 14 day) of 13.5 g. For the same molecule, the LIVER ([…], time 28 day) was 15.9 g, the A/G ([…], time 7 day) was 1.5 and the ALP ([…], time 7 day) was 967.8 IU/L. For the same molecule, the ALT ([…], time 7 day) was 31.6 IU/L, the AST ([…], time 7 day) was 63.8 IU/L and the BUN ([…], time 7 day) was 15.4 mg/dL. For the same molecule, the CRE ([…], time 7 day) was 0.4 mg/dL, the Ca ([…], time 7 day) was 10.6 mg/dL and the Cl ([…], time 7 day) was 103.8 meq/L. The DBIL ([…], time 7 day) was 0.096 mg/dL, the GLC ([…], time 7 day) was 219.2 mg/dL and the IP ([…], time 7 day) was 7.4 mg/dL. It also gave a K ([…], time 7 day) of 3.8 meq/L, an LDH ([…], time 7 day) of 164.8 IU/L and a Na ([…], time 7 day) of 140.8 meq/L. The PL ([…], time 7 day) was 147.4 mg/dL, the RALB ([…], time 7 day) was 3.4 g/dL and the TBIL ([…], time 7 day) was 0.1 mg/dL. For the same molecule, the TC ([…], time 7 day) was 73.2 mg/dL, the TG ([…], time 7 day) was 103.6 mg/dL and the TP ([…], time 7 day) was 5.7 g/dL. For the same molecule, the gamma-GTP ([…], time 7 day) was 1 IU/L, the A/G ([…], time 14 day) was 1.4 and the ALP ([…], time 14 day) was 885.8 IU/L. The ALT ([…], time 14 day) was 38.2 IU/L, the AST ([…], time 14 day) was 64.2 IU/L and the BUN ([…], time 14 day) was 16.2 mg/dL. The CRE ([…], time 14 day) was 0.5 mg/dL, the Ca ([…], time 14 day) was 10.6 mg/dL and the Cl ([…], time 14 day) was 103 meq/L. The DBIL ([…], time 14 day) was 0.088 mg/dL, the GLC ([…], time 14 day) was 205.2 mg/dL and the IP ([…], time 14 day) was 7.2 mg/dL. For the same molecule, the K ([…], time 14 day) was 3.9 meq/L, the LDH ([…], time 14 day) was 177 IU/L and the Na ([…], time 14 day) was 141.2 meq/L. The PL ([…], time 14 day) was 140.8 mg/dL, the RALB ([…], time 14 day) was 3.5 g/dL and the TBIL ([…], time 14 day) was 0.2 mg/dL. The TC ([…], time 14 day) was 67.2 mg/dL, the TG ([…], time 14 day) was 124.8 mg/dL and the TP ([…], time 14 day) was 6 g/dL. It also gave a gamma-GTP ([…], time 14 day) of 1 IU/L, an A/G ([…], time 28 day) of 1.3 and an ALP ([…], time 28 day) of 677.6 IU/L. For the same molecule, the ALT ([…], time 28 day) was 31.6 IU/L, the AST ([…], time 28 day) was 61.4 IU/L and the BUN ([…], time 28 day) was 17.2 mg/dL. The CRE ([…], time 28 day) was 0.5 mg/dL, the Ca ([…], time 28 day) was 10.4 mg/dL and the Cl ([…], time 28 day) was 103 meq/L. For the same molecule, the DBIL ([…], time 28 day) was 0.092 mg/dL, the GLC ([…], time 28 day) was 214.6 mg/dL and the IP ([…], time 28 day) was 6.6 mg/dL. The K ([…], time 28 day) was 3.9 meq/L, the LDH ([…], time 28 day) was 126.8 IU/L and the Na ([…], time 28 day) was 140.8 meq/L. The PL ([…], time 28 day) was 132.8 mg/dL, the RALB ([…], time 28 day) was 3.4 g/dL and the TBIL ([…], time 28 day) was 0.1 mg/dL. The TC ([…], time 28 day) was 64.2 mg/dL, the TG ([…], time 28 day) was 85.8 mg/dL and the TP ([…], time 28 day) was 6.2 g/dL. The gamma-GTP ([…], time 28 day) was 0.8 IU/L.
